Laboratory results taken from patent publication US20080124809A1, “Method of Interaction Observation” (RIKEN, priority 2004, published 2008).

Key:
[1] = test system: anti-DIG antibody; test: SPR imaging of anti-DIG antibody binding to the immobilized small molecular array; conditions: 4 J/cm^2; for binding of anti-DIG antibody to immobilized substance (FIG. 15): Comparative Example 2: irradiated at 245 nm, 50 μg/mL antibody run for 5 minutes; for binding of anti-DIG antibody to immobilized substance (FIG. 12): Example 1: photoimmobilized at 365 nm, 50 μg/mL antibody
[2] = test system: anti-EST antibody; test: SPR imaging of anti-EST antibody binding to the immobilized small molecular array; conditions: Example 1: photoimmobilized at 365 nm, 4 J/cm^2; 50 μg/mL antibody

Row | SMILES | binding of anti-DIG antibody to immobilized substance (FIG. 15) [1] | binding of anti-DIG antibody to immobilized substance (FIG. 12) [1] | binding of anti-EST antibody to immobilized substance (FIG. 13) [2]
1 | C[C@H]1O[C@@H](O[C@H]2[C@@H](O)C[C@H](O[C@H]3[C@@H](O)C[C@H](O[C@H]4CC[C@@]5(C)[C@H](CC[C@@H]6[C@@H]5C[C@@H](O)[C@]5(C)[C@@H](C7=CC(=O)OC7)CC[C@]65O)C4)O[C@@H]3C)O[C@@H]2C)C[C@H](O)[C@@H]1O [DIG, digoxin] | observed | obvious | 
2 | C[C@H]1O[C@@H](O[C@H]2[C@@H](O)C[C@H](O[C@H]3[C@@H](O)C[C@H](O[C@H]4CC[C@@]5(C)[C@H](CC[C@@H]6[C@@H]5CC[C@]5(C)[C@@H](C7=CC(=O)OC7)CC[C@]65O)C4)O[C@@H]3C)O[C@@H]2C)C[C@H](O)[C@@H]1O [DTN, digitoxin] | observed | obvious | 
3 | C[C@]12CC[C@@H]3c4ccc(O)cc4CC[C@H]3[C@@H]1CC[C@@H]2O [EST, β-Estradiol] |  |  | bound to only the spots of EST
4 | C[C@]12CCC(=O)C=C1CC[C@@H]1[C@@H]2[C@@H](O)C[C@@]2(C)[C@H]1CC[C@]2(O)C(=O)CO [HCN, Hydrocortisone] |  |  | No binding
5 | CC(=O)[C@H]1CC[C@H]2[C@@H]3CCC4=CC(=O)CC[C@]4(C)[C@H]3CC[C@]12C [PGS, Progesterone] |  |  | No binding
